5 molecules from patent US10494391B2, “Two-component anti-cancer composition” (KING FAHD UNIVERSITY OF PETROLEUM AND MINERALS, priority 2017, dated 2019) can be followed below.

Entries after “also recorded” stand apart in the source; their conditions may differ.

Holding throughout (type): cell-based
Assay [1] relates to A549 (human lung carcinoma) cell line. In words: MTT assay for in vitro cytotoxicity, A549. The conditions noted are these: for IC50: 24 h incubation with compound, three independent experiments, read-out: IC50 values against A549 cancer cell line; for activity against A549 cells, in words (relative to cisplatin / within the series): comparison of IC50 values. Here is the method:
(§1) The anticancer activity of complexes 1-5 was measured using a similar testing protocol reported earlier (M. Altaf et al., New J. Chem. 2015, 39, 377-385, incorporated herein by reference in its entirety) against a panel of representative human tumor cell lines, which included MCF7 (human breast cancer), HCT15 (human colon adenocarcinoma) and A549 (human lung carcinoma) cell lines. The cells were seeded at 3×10^3 cells/well in 100 μL DMEM containing 10% Fetal Bovine Serum (FBS) in 96-well tissue culture plate and incubated for 72 h at 37° C., 5% CO2 in air and 90% relative humidity in CO2 incubator. After incubation, 100 μL of 50, 25 and 12.5 μM solutions of cisplatin and complexes 1-5 prepared in Dulbecco's Modified Eagle's Medium (DMEM), were added to the cells and the cultures were incubated for 24 h. The medium of wells was discarded and 100 μL DMEM containing MTT (0.5 mg/mL) was added to the wells and incubated in CO2 incubator at 37° C. in dark for 4 h. After incubation, a purple colored formazan produced in the cells appeared as dark crystals in the bottom of the wells. The culture medium was discarded from each well carefully to prevent disruption of monolayer and 100 μL of dimethyl sulfoxide (DMSO) was added in each well. The solution in the wells was thoroughly mixed to dissolve the formazan crystals which produce a purple solution. The absorbance of the 96 well-plates was taken at 570 nm with Lab systems Multiskan EX ELISA reader against a reagent blank. The experimental results were presented as micro-mole concentration of 50% cell growth inhibition (IC50) of each compound. The MTT assay was performed in three independent experiments.
(§2) The synthesized gold(I)-phosphine complexes (1 and 2), gold(I)-dithiocarbamates (3-5) and cisplatin (standard classical anticancer drug) were tested for in vitro cytotoxicity against A549, MCF7 and HCT15 human cancer cell lines using MTT assay. The dose-dependent inhibition of cell proliferation was obtained by specific increase in concentration of tested compounds against fixed number of three human cancer cell lines. […] The highest activity of 4 might be attributed to the strong binding of dithiocarbamate sulfur to gold(I) that would prevent it to interact with plasma proteins in tissues, unlike cisplatin which was strongly bound to plasma proteins through sulfur atoms of thiols (S. Ahmad. Chem. Biodiv. 2010, 7, 543-566, incorporated herein by reference in its entirety).

The test system of assay [2] is HCT15 (human colon adenocarcinoma) cell line. In words: MTT assay for in vitro cytotoxicity, HCT15. The conditions noted are these: for IC50: 24 h incubation with compound, three independent experiments, read-out: IC50 values against HCT15 cancer cell line; for antiproliferative potential for HCT15 cells, in words (relative to cisplatin / within the series): comparison of IC50 values. Here is the method: as §1, §2

Assay [3] deals with MCF7 (human breast cancer) cell line. In words: MTT assay for in vitro cytotoxicity, MCF7. Particulars: for IC50: 24 h incubation with compound, three independent experiments, read-out: IC50 values against MCF7 cancer cell line; for antiproliferative potential for MCF7 cells, in words (relative to cisplatin / within the series): comparison of IC50 values. The protocol:
as §1, §2
A general note: Formazan colour is commonly taken as a measure of viable cells.

Usually IC50 stands for the point on the concentration scale where inhibition reaches its midpoint. Regarding [Au2(S2CN(CH3)2)2]n [Complex 3], in assay [1], the IC50 was determined as 304 ± 5.9 µM and the “activity against A549 cells, in words (relative to cisplatin / within the series)” value is recorded as “least effective”. In addition, in assay [2], the IC50 came to 257 ± 3.39 µM and the “antiproliferative potential for HCT15 cells, in words (relative to cisplatin / within the series)” value was “least effective”. Moreover, in assay [3], the IC50 came out at 139 ± 4.51 µM and the “antiproliferative potential for MCF7 cells, in words (relative to cisplatin / within the series)” value is listed as “least effective”.
For the molecule `N.N.[Cl][Pt][Cl]` [cisplatin, reference compound], the IC50 in assay [1] was 42.2 ± 2.01 µM; in assay [2], 32 ± 2.12 µM; in assay [3] it was 23.2 ± 3.79 µM.
`NCC[P+]([Au-2][P+](CCN)(c1ccccc1)c1ccccc1)(c1ccccc1)c1ccccc1` [Complex 2, [Au(AEP)2]Cl]: in assay [2], the “antiproliferative potential for HCT15 cells, in words (relative to cisplatin / within the series)” value was “comparable to cisplatin”. Besides, the “antiproliferative potential for MCF7 cells, in words (relative to cisplatin / within the series)” value in assay [3] was “about half with respect to cisplatin”.
[Au2(S2CN(C2H5)2)2]n [Complex 4]: in assay [1], the IC50 came out at 19.6 ± 0.85 µM and the “activity against A549 cells, in words (relative to cisplatin / within the series)” value is “most active among the series”. In addition, in assay [2], the 50% inhibitory concentration (IC50) was found to be 38.9 ± 2.38 µM and the “antiproliferative potential for HCT15 cells, in words (relative to cisplatin / within the series)” value is listed as “comparable to cisplatin; also recorded: most active among the series”. In addition, in assay [3], the concentration for half-maximal inhibition (IC50) came to 48.8 ± 1.96 µM and the “antiproliferative potential for MCF7 cells, in words (relative to cisplatin / within the series)” value is “about half with respect to cisplatin; also recorded: most active among the series”.
For the molecule [Au2(S2CN(CH7)2)2]n [Complex 5], the IC50 in assay [1] turned out to be 29.2 ± 1.81 µM; in assay [2] it was 69.1 ± 3.35 µM; in assay [3], 76.3 ± 2.52 µM.
